Data from patent publication US20050026897A1, “Trinuclear copper-based compound and ligand for nucleic acid scission and anticancer treatment” (priority 2001, published 2005).

Columns and labels:
[1] = test system: hairpin forming oligonucleotide (OD1); assay: Strand scission of 5'-32P-labeled hairpin oligonucleotide OD1 with MPA, PAGE / phosphorimage analysis; assay type: biochemical
Procedure: (§1) FIG. 3 is an autoradiogram of a 20% polyacrylamide denaturing gel (7 M urea) showing cleavage products of 100 nM 5′-^32P-labeled OD1 incubated with a compound of formula I and MPA (3-mercaptopropionic acid) for 15 minutes in sodium phosphate (10 mM, pH 7.5) at ambient temperature. Lane 1 depicts OD1 alone. Lane 2 depicts OD1 with 5 μM formula I. Lane 3 depicts OD1 with 5 mM MPA. Lane 4-6 depict 0.5, 1, and 5 μM formula I with 5 mM MPA and OD1. Lane 7 depicts OD1+OD2 with 10 μM formula 1 and 5 mM MPA. Lane 8 depicts A+G sequencing lane.
A hairpin forming oligonucleotide (OD1) (SEQ ID NO. 2) (see FIG. 1) was treated with a compound of formula I in the presence of excess MPA and it was then quenched with dithiocarbamic acid. […] Selectivity was reduced to 66% if the concentration of the compound of formula I is increased 10-fold to 5 μm, due in part to an increase in reactivity primarily at A9, T10 and T21 (FIG. 3, lane 6). In the absence of either the thiol or the compound of formula I, no cleavage of OD1 was observed (FIG. 3, lanes 2 and 3). In addition, there was no enhancement of reaction at A9, T10 or T21. […] The persistent specificity for A22 when OD2 is present was likely due to residual hairpin formed in competition with duplex DNA. […]

OD1+OD2 duplex DNA = assay: Strand scission of duplex-forming OD1+OD2 with MPA, PAGE; assay type: biochemical
Procedure: as §1
A hairpin forming oligonucleotide (OD1) (SEQ ID NO. 2) (see FIG. 1) was treated with a compound of formula I in the presence of excess MPA and it was then quenched with dithiocarbamic acid. […] Selectivity was reduced to 66% if the concentration of the compound of formula I is increased 10-fold to 5 μm, due in part to an increase in reactivity primarily at A9, T10 and T21 (FIG. 3, lane 6). In the absence of either the thiol or the compound of formula I, no cleavage of OD1 was observed (FIG. 3, lanes 2 and 3). In addition, there was no enhancement of reaction at A9, T10 or T21. […] The persistent specificity for A22 when OD2 is present was likely due to residual hairpin formed in competition with duplex DNA.

Structure (SMILES): [Cu+2].c1cnc2c(c1)ccc1cccnc12.c1cnc2c(c1)ccc1cccnc12 [Cu(OP)2^2+, bis(1,10-phenanthroline)copper]
- A22 as target of reaction [1]: not a major target
- A22 as target of reaction (OD1+OD2 duplex DNA): not a major target
